Test results as given in patent publication US12098144B2, “Piperazine indazole glucocorticoid receptor antagonists” (Corcept Therapeutics Incorporated, priority 2021, dated 2024).

biological target: T1, glucocorticoid receptor (Homo sapiens, UniProt P04150); assay: Hep G2 TAT Ki: inhibition of dexamethasone-induced TAT in HepG2 cells (96 well); format: cell-based; details: challenge of 100 nM dexamethasone, IC50 converted to Ki by Cheng and Prusoff equation
T1 construct: endogenous in cells; ATCC cat
T1 sequence (P04150 1-777): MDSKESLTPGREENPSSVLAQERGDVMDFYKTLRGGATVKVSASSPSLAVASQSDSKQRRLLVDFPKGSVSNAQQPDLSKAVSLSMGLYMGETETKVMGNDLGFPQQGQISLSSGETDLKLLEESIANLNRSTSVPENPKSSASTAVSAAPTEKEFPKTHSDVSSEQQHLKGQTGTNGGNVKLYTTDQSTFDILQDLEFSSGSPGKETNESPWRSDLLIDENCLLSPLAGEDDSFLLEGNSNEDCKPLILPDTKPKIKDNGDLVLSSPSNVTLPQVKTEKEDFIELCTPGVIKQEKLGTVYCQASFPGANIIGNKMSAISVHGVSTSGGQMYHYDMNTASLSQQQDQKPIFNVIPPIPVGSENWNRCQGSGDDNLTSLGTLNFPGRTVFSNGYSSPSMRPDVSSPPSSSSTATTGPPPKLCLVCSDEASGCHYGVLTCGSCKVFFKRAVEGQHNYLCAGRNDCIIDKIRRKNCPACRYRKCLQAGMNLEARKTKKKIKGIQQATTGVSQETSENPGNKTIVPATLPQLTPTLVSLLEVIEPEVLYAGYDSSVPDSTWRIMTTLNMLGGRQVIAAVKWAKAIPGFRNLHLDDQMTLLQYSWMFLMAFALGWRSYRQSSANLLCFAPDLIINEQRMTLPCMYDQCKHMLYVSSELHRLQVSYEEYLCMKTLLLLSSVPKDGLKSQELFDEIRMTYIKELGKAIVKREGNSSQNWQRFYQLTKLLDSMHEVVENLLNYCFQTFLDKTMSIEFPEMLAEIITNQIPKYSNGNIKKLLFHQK
Procedure, shortened: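 Cells lysed 15 min at 4 °C; TAT enzyme reaction 2 h at 37 °C, stopped with KOH, 30 min further at 37 °C. Inhibition fitted to 4-parameter logistic.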

Compound	Ki
CCn1cc(S(=O)(=O)N2CCN(CC(C)C)C(c3cc4cnn(-c5ccc(F)cc5)c4cc3C)C2)cn1 (centres unmarked) [Example 38, 5-(4-((1-ethyl-1H-pyrazol-4-yl)sulfonyl)-1-isobutylpiperazin-2-yl)-1-(4-fluorophenyl)-6-methyl-1H-indazole]	46 nM
5-(1-(2-fluoro-2-methylpropyl)-4-((2-methyl-2H-1,2,3-triazol-4-yl)sulfonyl)piperazin-2-yl)-1-(4-fluorophenyl)-6-methyl-1H-indazole [Example 162a]	57 nM
Cc1cc2c(cnn2-c2ccc(F)cc2)cc1C1CN(S(=O)(=O)c2ccccn2)CCN1CCC(F)(F)F (single isomer, unassigned) [Example 139, 1-(4-fluorophenyl)-6-methyl-5-(4-(pyridin-2-ylsulfonyl)-1-(3,3,3-trifluoropropyl)piperazin-2-yl)-1H-indazole]	37 nM
Cc1ccc(S(=O)(=O)N2CCN(CC(C)C)C(c3cc4cnn(-c5ccc(F)cc5)c4cc3C)C2)cn1 (single isomer, unassigned) [Example 104, 1-(4-fluorophenyl)-5-(1-isobutyl-4-((6-methylpyridin-3-yl)sulfonyl)piperazin-2-yl)-6-methyl-1H-indazole]	19 nM
Cc1cc2c(cnn2-c2cccnc2)cc1C1CN(S(=O)(=O)c2cnn(C)n2)CCN1CCC(F)(F)F (centres unmarked) [Example 167, 6-methyl-5-(4-((2-methyl-2H-1,2,3-triazol-4-yl)sulfonyl)-1-(3,3,3-trifluoropropyl)piperazin-2-yl)-1-(pyridin-3-yl)-1H-indazole]	59 nM
Cc1nc(S(=O)(=O)N2CCN(CC(C)C)C(c3cc4cnn(-c5ccc(F)cc5)c4cc3C)C2)cs1 (single isomer, unassigned) [Example 99, 4-((3-(1-(4-fluorophenyl)-6-methyl-1H-indazol-5-yl)-4-isobutylpiperazin-1-yl)sulfonyl)-2-methylthiazole]	19 nM
Cc1cc2c(cnn2-c2ccc(F)cc2)cc1C1CN(S(=O)(=O)c2cnn(C)c2C)CCN1CC(C)C (single isomer, unassigned) [Example 57, 5-(4-((1,5-dimethyl-1H-pyrazol-4-yl)sulfonyl)-1-isobutylpiperazin-2-yl)-1-(4-fluorophenyl)-6-methyl-1H-indazole]	19 nM
Cc1cc2c(cnn2-c2ccc(F)cc2)cc1C1CN(S(=O)(=O)C2CCC2)CCN1CCC(F)(F)F (single isomer, unassigned) [Example 140, 5-(4-(cyclobutylsulfonyl)-1-(3,3,3-trifluoropropyl)piperazin-2-yl)-1-(4-fluorophenyl)-6-methyl-1H-indazole]	47 nM
Cc1cc2c(cnn2-c2ccc(F)cc2)cc1C1CN(S(=O)(=O)C2CC2)CCN1CC(C)C (centres unmarked) [Example 8, 5-(4-(cyclopropylsulfonyl)-1-isobutylpiperazin-2-yl)-1-(4-fluorophenyl)-6-methyl-1H-indazole]	66 nM
Cc1cc2c(cnn2-c2ccc(F)cc2)cc1C1CN(S(=O)(=O)CCOC(C)C)CCN1CC(C)C (single isomer, unassigned) [Example 108, 1-(4-fluorophenyl)-5-(1-isobutyl-4-((2-isopropoxyethyl)sulfonyl)piperazin-2-yl)-6-methyl-1H-indazole]	44 nM
Cc1cc2c(cnn2-c2ccc(F)cc2)cc1C1CN(S(=O)(=O)C2CCOCC2)CCN1CC(C)C (centres unmarked) [Example 44, 1-(4-fluorophenyl)-5-(1-isobutyl-4-((tetrahydro-2H-pyran-4-yl)sulfonyl)piperazin-2-yl)-6-methyl-1H-indazole]	93 nM
CCn1cc(S(=O)(=O)N2CCN(CC(C)C)C(c3cc4cnn(-c5ccc(F)cc5)c4cc3C)C2)nn1 (single isomer, unassigned) [Example 63, 5-(4-((1-ethyl-1H-1,2,3-triazol-4-yl)sulfonyl)-1-isobutylpiperazin-2-yl)-1-(4-fluorophenyl)-6-methyl-1H-indazole]	20 nM

More lines, now with the values ahead:

Ki	Compound
19 nM	Cc1cc2c(cnn2-c2ccc(F)cc2)cc1[C@@H]1CN(S(=O)(=O)c2cnn(C)n2)CCN1C[C@@H](C)C(F)(F)F [Example 32, 1-(4-fluorophenyl)-6-methyl-5-((R)-4-((2-methyl-2H-1,2,3-triazol-4-yl)sulfonyl)-1-((R)-3,3,3-trifluoro-2-methylpropyl)piperazin-2-yl)-1H-indazole]
47 nM	Cc1cc2c(cnn2-c2ccc(F)cc2)cc1C1CN(S(=O)(=O)c2cnn(C)n2)CCN1C1CCCC1 (single isomer, unassigned) [Example 27, 5-(1-cyclopentyl-4-((2-methyl-2H-1,2,3-triazol-4-yl)sulfonyl)piperazin-2-yl)-1-(4-fluorophenyl)-6-methyl-1H-indazole]
180 nM	Cc1cc2c(cnn2-c2ccc(F)cc2)cc1C1CN(S(=O)(=O)c2cnn(C)n2)CCN1CC1(C#N)CC1 (centres unmarked) [Example 69, 1-((2-(1-(4-fluorophenyl)-6-methyl-1H-indazol-5-yl)-4-((2-methyl-2H-1,2,3-triazol-4-yl)sulfonyl)piperazin-1-yl)methyl)cyclopropane-1-carbonitrile]
71 nM	CC[C@H](C)N1CCN(S(=O)(=O)c2cnn(C)n2)C[C@@H]1c1cc2cnn(-c3ccc(F)cc3)c2cc1C (single isomer, unassigned) [Example 123, 5-(1-(sec-butyl)-4-((2-methyl-2H-1,2,3-triazol-4-yl)sulfonyl)piperazin-2-yl)-1-(4-fluorophenyl)-6-methyl-1H-indazole]
120 nM	Cc1cc2c(cnn2-c2ccc(F)cc2)cc1C1CN(S(=O)(=O)c2cnn(C)n2)CCN1CC(C)C(F)(F)F (single isomer, unassigned) [Example 21, 1-(4-fluorophenyl)-6-methyl-5-(4-((2-methyl-2H-1,2,3-triazol-4-yl)sulfonyl)-1-(3,3,3-trifluoro-2-methylpropyl)piperazin-2-yl)-1H-indazole]
170 nM	Cc1cc2c(cnn2-c2ccc(F)cc2)cc1C1CN(S(=O)(=O)c2cnn(C)n2)CCN1CC1(F)CC1 (single isomer, unassigned) [Example 73, 5-(1-((1-fluorocyclopropyl)methyl)-4-((2-methyl-2H-1,2,3-triazol-4-yl)sulfonyl)piperazin-2-yl)-1-(4-fluorophenyl)-6-methyl-1H-indazole]
13 nM	Cc1cc2c(cnn2-c2ccc(F)cc2)cc1C1CN(S(=O)(=O)c2cnn(C)n2)CCN1CC1CCCC1 (single isomer, unassigned) [Example 78, 5-(1-(cyclopentylmethyl)-4-((2-methyl-2H-1,2,3-triazol-4-yl)sulfonyl)piperazin-2-yl)-1-(4-fluorophenyl)-6-methyl-1H-indazole]
56 nM	Cc1cc2c(cnn2-c2ccc(F)cc2)cc1C1CN(S(=O)(=O)c2cnccc2C)CCN1CC(C)C(F)(F)F (single isomer, unassigned) [Example 149, 1-(4-fluorophenyl)-6-methyl-5-(4-((4-methylpyridin-3-yl)sulfonyl)-1-(3,3,3-trifluoro-2-methylpropyl)piperazin-2-yl)-1H-indazole]
28 nM	Cc1cc2c(cnn2-c2ccc(F)cc2)cc1C1CN(S(=O)(=O)c2cnn(C)n2)CCN1CC1CC(F)C1 (single isomer, unassigned) [Example 156, 5-(1-((3-fluorocyclobutyl)methyl)-4-((2-methyl-2H-1,2,3-triazol-4-yl)sulfonyl)piperazin-2-yl)-1-(4-fluorophenyl)-6-methyl-1H-indazole]
22 nM	Cc1cc2c(cnn2-c2ccc(F)cc2)cc1[C@H]1CN(S(=O)(=O)c2cnn(C)n2)C[C@@H](C)N1CC(C)C (relative stereo) [Example 127]
86 nM	Cc1cc2c(cnn2-c2ccc(F)cc2)cc1C1CN(S(=O)(=O)c2ncn(C)n2)CCN1CC(C)C (single isomer, unassigned) [Example 92, 1-(4-fluorophenyl)-5-(1-isobutyl-4-((1-methyl-1H-1,2,4-triazol-3-yl)sulfonyl)piperazin-2-yl)-6-methyl-1H-indazole]
73 nM	CC(C)CN1CCN(S(=O)(=O)c2cnn(C)n2)CC1c1cc2cnn(-c3ccc(F)cc3)c2cc1Cl (centres unmarked) [Example 24, 6-chloro-1-(4-fluorophenyl)-5-(1-isobutyl-4-((2-methyl-2H-1,2,3-triazol-4-yl)sulfonyl)piperazin-2-yl)-1H-indazole]
260 nM	Cc1cc2c(cnn2-c2ccc(F)cc2)cc1C1CN(S(=O)(=O)c2cnn(C)n2)CCN1CC(C)(C)O (centres unmarked) [Example 162, 1-(2-(1-(4-fluorophenyl)-6-methyl-1H-indazol-5-yl)-4-((2-methyl-2H-1,2,3-triazol-4-yl)sulfonyl)piperazin-1-yl)-2-methylpropan-2-ol]
57 nM	COc1cc2c(cnn2-c2ccc(F)cc2)cc1C1CN(S(=O)(=O)c2cnn(C)n2)CCN1CC(C)C (centres unmarked) [Example 22, 1-(4-fluorophenyl)-5-(1-isobutyl-4-((2-methyl-2H-1,2,3-triazol-4-yl)sulfonyl)piperazin-2-yl)-6-methoxy-1H-indazole]
